ChEMBL document CHEMBL5030559, “Imaging Autotaxin In Vivo with 18F-Labeled Positron Emission Tomography Ligands” (J Med Chem, 2021)
Values belong to the compound of their own block, whether it stands above or below them.

What was measured:
Autotaxin = Autotaxin (Homo sapiens, UniProt Q13822); assay: Inhibition of ATX lysoPLD (unknown origin) using 18:1 LPC as substrate assessed as reduction in choline release by HVA fluorescence based analysis
[1] = Drug uptake in iv dosed CD-1 mouse small intestine assessed as high radioactivity in small intestine measured up to 60 mins post injection by PET imaging analysis; type: ADME, organism-based; conditions: in vivo, 1 h
[2] = Drug uptake in iv dosed CD-1 mouse liver assessed as high radioactivity in liver measured up to 60 mins post injection by PET imaging analysis; type: ADME, organism-based; conditions: in vivo, 1 h
[3] = Ex vivo biodistribution in bone of iv dosed CD-1 mouse assessed as accumulation of radioactivity in bone measured after 15 to 60 min by PET imaging analysis; type: ADME, organism-based, Bone element; conditions: time 15-60 min
[4] = Drug uptake in iv dosed CD-1 mouse kidney assessed as high radioactivity in kidney measured up to 60 mins post injection by PET imaging analysis; type: ADME, organism-based; conditions: in vivo, 1 h
[5] = Drug uptake in iv dosed CD-1 mouse bone measured after 30 min by PET imaging analysis; type: ADME, organism-based, Bone element; conditions: in vivo, 0.5 h
[6] = Drug uptake in iv dosed CD-1 mouse brain measured up to 60 mins post injection by PET imaging analysis; type: ADME, organism-based; conditions: in vivo, 1 h
[7] = Drug uptake in iv dosed CD-1 mouse bone assessed as accumulation of radioactivity in bone measured after 60 mins post injection by PET imaging analysis; type: ADME, organism-based, Bone element; conditions: in vivo, 1 h
[8] = Drug uptake in iv dosed CD-1 mouse bone assessed as accumulation of radioactivity in bone measured after 30 mins post injection by PET imaging analysis; type: ADME, organism-based, Bone element; conditions: in vivo, 0.5 h
[9] = Drug uptake in iv dosed CD-1 mouse bone assessed as accumulation of radioactivity in bone measured after 30 to 60 mins post injection by PET imaging analysis; type: ADME, organism-based, Bone element; conditions: in vivo, time 30-60 min
[10] = Drug uptake in liver of LPS- induced CD-1 mouse model assessed as increase in signal of tracer in inflammed liver by measuring AUC (30 to 60 mins) relative to control; type: ADME, tissue-based; conditions: in vivo, time 30-60 min
[11] = Drug uptake in liver of LPS- induced CD-1 mouse model assessed as increase in signal of tracer in liver measured after 30 mins by autoradiography analysis relative to control; type: ADME, tissue-based; conditions: in vivo, 0.5 h

Structure (SMILES): CCc1nc2ccc(N3CCN(CC(=O)N4CC[C@@H](F)C4)CC3)cn2c1N(C)c1nc(-c2ccc(F)cc2)c(C#N)s1
Ki (Autotaxin): 14 nM

Structure (SMILES): CCc1nc2ccc(N3CCN(CC(=O)N4CC(OCCF)C4)CC3)cn2c1N(C)c1nc(-c2ccc(F)cc2)c(C#N)s1
Ki (Autotaxin): 17 nM

Structure (SMILES): CCc1nc2ccc(N3CCN(CC(=O)N4CC(CF)C4)CC3)cn2c1N(C)c1nc(-c2ccc(F)cc2)c(C#N)s1
Ki (Autotaxin): 14 nM

Structure (SMILES): CCc1nc2ccc(N3CCN(CC(=O)N4CCC(F)CC4)CC3)cn2c1N(C)c1nc(-c2ccc(F)cc2)c(C#N)s1
Ki (Autotaxin): 15 nM

Structure (SMILES): CCc1nc2ccc(N3CCN(CC(=O)N4CCN(CCF)CC4)CC3)cn2c1N(C)c1nc(-c2ccc(F)cc2)c(C#N)s1
Ki (Autotaxin): 13 nM

Structure (SMILES): [2H]C([2H])(F)C([2H])([2H])N1CCN(C(=O)CN2CCN(c3ccc4nc(CC)c(N(C)c5nc(-c6ccc(F)cc6)c(C#N)s5)n4c3)CC2)CC1
Ki (Autotaxin): 19 nM

Structure (SMILES): CCc1nc2ccc(N3CCN(CC(=O)N4CCC(F)C4)CC3)cn2c1N(C)c1nc(-c2ccc(F)cc2)c(C#N)s1 (stereo not drawn)
Ki (Autotaxin): 15 nM

Structure (SMILES): CCc1nc2ccc(N3CCN(CC(=O)N4CC[C@H](F)C4)CC3)cn2c1N(C)c1nc(-c2ccc(F)cc2)c(C#N)s1
Ki (Autotaxin): 32 nM

Structure (SMILES): CCc1nc2ccc(N3CCN(CC(=O)N4CCC([18F])CC4)CC3)cn2c1N(C)c1nc(-c2ccc(F)cc2)c(C#N)s1
Drug uptake [9]: 10 % ID/g

Structure (SMILES): [2H]C([2H])([18F])C([2H])([2H])N1CCN(C(=O)CN2CCN(c3ccc4nc(CC)c(N(C)c5nc(-c6ccc(F)cc6)c(C#N)s5)n4c3)CC2)CC1
Drug uptake [1]: Active
Drug uptake [2]: Active
Drug uptake [10]: 84%
Drug uptake [3]: Not Active
Drug uptake [4]: Active
Drug uptake [11]: 92%

Structure (SMILES): CCc1nc2ccc(N3CCN(CC(=O)N4CCC(CF)C4)CC3)cn2c1N(C)c1nc(-c2ccc(F)cc2)c(C#N)s1 (stereo not drawn)
Ki (Autotaxin): 7 nM

Structure (SMILES): CCc1nc2ccc(N3CCN(CC(=O)N4CCC([18F])C4)CC3)cn2c1N(C)c1nc(-c2ccc(F)cc2)c(C#N)s1 (stereo not drawn)
Drug uptake [9]: 10 % ID/g

The next lines start with the values.

Ki (Autotaxin): 41 nM
Structure (SMILES): CCc1nc2ccc(N3CCN(CC(=O)N4CC(F)C4)CC3)cn2c1N(C)c1nc(-c2ccc(F)cc2)c(C#N)s1

Ki (Autotaxin): 15 nM
Structure (SMILES): CCc1nc2ccc(N3CCN(CC(=O)N4CCCC(F)C4)CC3)cn2c1N(C)c1nc(-c2ccc(F)cc2)c(C#N)s1 (stereo not drawn)

Drug uptake [1]: Active
Drug uptake [2]: Active
Drug uptake [3]: Active
Drug uptake [4]: Active
Drug uptake [5]: Active
Drug uptake [6]: Not Active
Structure (SMILES): CCc1nc2ccc(N3CCN(CC(=O)N4CCC(C[18F])C4)CC3)cn2c1N(C)c1nc(-c2ccc(F)cc2)c(C#N)s1 (stereo not drawn)

Drug uptake [7]: 6.4 % ID/g
Drug uptake [8]: 6.6 % ID/g
Structure (SMILES): CCc1nc2ccc(N3CCN(CC(=O)N4CCN(CC[18F])CC4)CC3)cn2c1N(C)c1nc(-c2ccc(F)cc2)c(C#N)s1

Ki (Autotaxin): 30 nM
Structure (SMILES): CCc1nc2ccc(N3CCN(CC(=O)N4CC(O)C4)CC3)cn2c1N(C)c1nc(-c2ccc(F)cc2)c(C#N)s1
